For one assay, the target named is T1, Hck SH3 domain (Homo sapiens, UniProt P08631).
T1 construct: The hck SH3 domain was amplified by PCR using Phusion DNA polymerase; GST (N, cleaved yes); made in house; host or cells: E. coli BL21 (DE3)
Description: ITC binding to Hck SH3 domain (two-sets-of-sites fit). Conditions: high affinity specific site. The protocol:
All chemical reagents were purchased from Sigma-Aldrich and were used without further purification.
Peptide synthesis. All peptides were synthesized manually or with an AAPPTEC APEX 396 Automated Multipeptide Synthesizer using standard solid-phase Fmoc protocols.1,2 Peptides were prepared as C-terminal amides using Rink amide MBHA resin (AAPPTEC) and were acetylated at the N-terminus prior to cleavage from the resin. Peptides and metallopeptides were purified by reverse-phase HPLC.
HPLC separation. Reverse-phase HPLC was performed on a Shimadzu CBM-20A instrument with Phenomenex Jupiter 4μ Proteo 90A (250 × 15 mm preparative) and Phenomenex Jupiter 4μ Proteo 90A (250 × 4.6 mm analytical) columns. The columns were eluted with a gradient of acetonitrile in water (10-90%) (flow rates of 8 mL/min and 1 mL/min for preparative and analytical columns, respectively). Trifluoroacetic acid (0.1%) was added to all eluents. […]
ITC analysis. ITC experiments were carried out on a VP-ITC instrument (MicroCal) at 25 °C. Titrations of 275 μM peptide into 18 μM SH3 domain proteins were used for all titrations, except for the titration of S2ERh into Lyn SH3 domain, where the lower concentrations of 69 µM S2ERh peptide and 4 µM Lyn SH3 were used to attain a c-value for the titration within the accepted limts for ITC experiments ([…]).3
Heats of dilutions were measured independently for each experiment by titrating 275 μM peptide into buffer (20 mM phosphate buffer, pH 7, 150 mM NaCl, 1 mM EDTA). All experimental data were fitted using a one set of sites binding model in Origin software (MicroCal) except for the data with Hck SH3 domain. With Hck only, the non-peptide specific binding of dirhodium tetraacetate to Hck SH3 domain could not be treated as negligible, despite the very weak interaction (88 µM), due to the larger enthalpy contribution observed for non-specific binding to this SH3 domain, so the titrations of peptide into Hck were fitted using a 2 set of sites binding model where the stoichiometry for the second set of sites was fixed at 2.0. […]
Mass spectrometry. ESI-MS was performed on a Bruker Daltonics micrOTOF instrument.
Known compounds and proteins. Several metallopeptides (S2ERh, L3ERh, R5ERh, and 13DRh) were reported previously and were prepared by known protocols;4 alkyne-diazo 3,5 3-azido-7-hydroxycoumarin6 were synthesized following reported procedures; fyn, yes, lck, and src SH3 protein domains were prepared following published procedures.5 Abl, hck, and lyn SH3 domain plasmids were adapted from the previously reported genes;7 the gene templates were obtained from Addgene, ID […]
Table S1. Table of the thermodynamic parameters for binding of metallopeptides to SH3 domains, determined by isothermal […]
Protein Peptide Stoichiometry Kd ΔH -TΔS ΔG
(nM) (kcal mol-1) (kcal mol-1) (kcal mol-1)
* The binding isotherms for metallopeptide interactions with Hck were fitted using a two -sets-of-sites model with the stoichiometry for the second set of sites fixed to 2.0. The second set of binding sites was used to account for the weak, but not negligable, binding of the peptide to another surface of Hck SH3 domain, presumably through non-specific interactions of the dirhodium tetraacetate group. The thermodynamics for the high affinity specific binding site interaction are provided in this

In the next assay the target is Fyn SH3 domain. Details: method as in PMID 22621321. Conditions: Fyn SH3, ITC; previously reported ref 52; cited from earlier work.

T1 sequence (P08631 77-139): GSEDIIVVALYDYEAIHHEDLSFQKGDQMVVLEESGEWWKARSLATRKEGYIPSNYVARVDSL

What is called Kd is a measure of binding affinity in units of concentration. Consider “AcVELARRPLPPLPN-NH2 (Ac-VELARRPLPPLPN-NH2; also: Glu2 side-chain carboxylate bound to Rh2(OAc)3) [S2E^Rh, rhodium(II) metallopeptide made from S2E peptide (Ac…-NH2) and Rh2(tfa)(OAc)3]”, for which the Kd with Hck SH3 domain (25 °C) stood at 26 nM.

Turning to AcVELARRPLPPLPN-NH2 [S2E^Rh], the Kd on Fyn SH3 domain is 769 nM. On Hck SH3 domain (25 °C), the “-TΔS” value was found to be 6.9 kcal/mol, the ΔG is -10.4 kcal/mol and the ΔH is -17.2 kcal/mol. On Hck SH3 domain, the Stoichiometry came to 0.95.

The values above are taken from paper PMC5667506, “Potent and selective inhibition of SH3 domains with dirhodium metalloinhibitors” (Chemical Science, 2015).
